# Where two headings read alike, the source gives them in different places.
# What was measured:
# SARS-CoV-2 = test: Plaque reduction / time-of-addition assay; assay type: cell-based; conditions: for IC50: Vero E6, MOI 0.1, plaque assay
# [1] = Cell viability assay (crystal violet); conditions: African green monkey
# SARS-CoV = conditions: cited from earlier work
# [2] = Severe acute respiratory syndrome coronavirus 2, Vero C1008, compound added at the time of infection (0 h), read-out: IC50 (µM) 0 h
# [3] = Severe acute respiratory syndrome coronavirus 2, Vero C1008, read-out: IC50 (µM) 1 h, compound added 1 h postinfection
Compound,IC50 (SARS-CoV-2; [2]) [µM],IC50 (SARS-CoV-2; [3]) [µM],plaque reduction (SARS-CoV-2; compound added 1 h postinfection),"viability at 48 h, 10 µM [1] [%]",IC50 (SARS-CoV) [µM]
"O=C1c2cc(N3CCOCC3)c(Cc3ccccc3)nc2C(c2ccccc2F)N1CCNc1ccnc2cc(Cl)ccc12 (stereo not drawn) [19e, 2-Benzyl-6-(2-((7-chloroquinolin-4-yl)amino)ethyl)-7-(2-fluorophenyl)-3-morpholino-6,7-dihydro-5H-pyrrolo[3,4-b]pyridin-5-one]",17.1,,,,
"O=C1c2cc(N3CCOCC3)c(Cc3ccccc3)nc2C(c2c(F)c(F)c(F)c(F)c2F)N1CCCNc1ccnc2cc(Cl)ccc12 (stereo not drawn) [19l, 2-Benzyl-6-(3-((7-chloroquinolin-4-yl)amino)propyl)-3-morpholino-7-(perfluorophenyl)-6,7-dihydro-5H-pyrrolo[3,4-b]pyridin-5-one]",7.06,,,,
"CCN(CC)c1cc2c(nc1Cc1ccccc1)C(c1ccc(C(F)(F)F)cc1)N(CCNc1ccnc3cc(Cl)ccc13)C2=O (stereo not drawn) [19i, 2-Benzyl-6-(2-((7-chloroquinolin-4-yl)amino)ethyl)-3-(diethylamino)-7-(4-(trifluoromethyl)phenyl)-6,7-dihydro-5H-pyrrolo[3,4-b]pyridin-5-one]",24,5.29,approximately one logarithmic unit,> 90,
"O=C1c2cc(N3CCOCC3)c(Cc3ccccc3)nc2C(c2cc(C(F)(F)F)cc(C(F)(F)F)c2)N1CCNc1ccnc2cc(Cl)ccc12 (stereo not drawn) [19j, 2-Benzyl-7-(3,5-bis(trifluoromethyl)phenyl)-6-(2-((7-chloroquinolin-4-yl)amino)ethyl)-3-morpholino-6,7-dihydro-5H-pyrrolo[3,4-b]pyridin-5-one]",15,,,,
"CCN(CC)c1cc2c(nc1Cc1ccccc1)C(c1ccc(F)cc1)N(CCNc1ccnc3cc(Cl)ccc13)C2=O (stereo not drawn) [19d, 2-Benzyl-6-(2-((7-chloroquinolin-4-yl)amino)ethyl)-3-(diethylamino)-7-(4-fluorophenyl)-6,7-dihydro-5H-pyrrolo[3,4-b]pyridin-5-one]",6.74,,,> 90,
CCN(CC)CCCC(C)Nc1ccnc2cc(Cl)ccc12 (stereo not drawn) [Chloroquine],,,,,8.8
"O=C1c2cc(N3CCOCC3)c(Cc3ccccc3)nc2C(c2ccccc2F)N1CCCNc1ccnc2cc(Cl)ccc12 (stereo not drawn) [19f, 2-Benzyl-6-(3-((7-chloroquinolin-4-yl)amino)propyl)-7-(2-fluorophenyl)-3-morpholino-6,7-dihydro-5H-pyrrolo[3,4-b]pyridin-5-one]",9.23,,,> 80,
"O=C1c2cc(N3CCOCC3)c(Cc3ccccc3)nc2C(c2ccc(C(F)(F)F)cc2)N1CCNc1ccnc2cc(Cl)ccc12 (stereo not drawn) [19g, 2-Benzyl-6-(2-((7-chloroquinolin-4-yl)amino)ethyl)-3-morpholino-7-(4-(trifluoromethyl)phenyl)-6,7-dihydro-5H-pyrrolo[3,4-b]pyridin-5-one]",7.5,6.98,,> 80,

# Source: article PMC12347832, “Multi-Component Synthesis of New Fluorinated-Pyrrolo[3,4-b]pyridin-5-ones Containing the 4-Amino-7-chloroquinoline Moiety and In Vitro–In Silico Studies Against Human SARS-CoV-2” (International Journal of Molecular Sciences, 2025)
